From PMC7278228, “Chemical space exploration based on recurrent neural networks: applications in discovering kinase inhibitors” (Journal of Cheminformatics, 2020) come the findings set out here.

Holding throughout (type): biochemical
The target of assay [1] is T1, CDK4 (Homo sapiens, UniProt P11802). Nature of the assay: mobility shift kinase assay, % inhibition at […].
The target in assay [2] is T1, CDK4. Nature of the assay: mobility shift kinase assay, % inhibition at […]. This is another data set of the same source.
In assay [3] the target is T1, CDK4. Nature of the assay: mobility shift kinase assay ([…] CDK4, […] ATP, FAM-P8).
A further assay deals with Pim1 (Homo sapiens, UniProt P11309). Nature of the assay: mobility shift kinase assay ([…] Pim1, […] ATP, FAM-P20).
Pim1, sequence (P11309 whole entry): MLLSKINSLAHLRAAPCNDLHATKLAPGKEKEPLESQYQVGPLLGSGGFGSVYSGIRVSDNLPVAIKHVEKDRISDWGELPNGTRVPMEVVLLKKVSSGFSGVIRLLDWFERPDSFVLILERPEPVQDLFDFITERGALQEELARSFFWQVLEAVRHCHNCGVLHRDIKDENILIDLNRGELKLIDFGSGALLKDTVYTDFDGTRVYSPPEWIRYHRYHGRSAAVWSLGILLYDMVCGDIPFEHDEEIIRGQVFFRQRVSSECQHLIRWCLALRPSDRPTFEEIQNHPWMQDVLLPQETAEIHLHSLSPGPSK

pIC50: −log10 of the molar value.

T1 sequence (P11802 2-303): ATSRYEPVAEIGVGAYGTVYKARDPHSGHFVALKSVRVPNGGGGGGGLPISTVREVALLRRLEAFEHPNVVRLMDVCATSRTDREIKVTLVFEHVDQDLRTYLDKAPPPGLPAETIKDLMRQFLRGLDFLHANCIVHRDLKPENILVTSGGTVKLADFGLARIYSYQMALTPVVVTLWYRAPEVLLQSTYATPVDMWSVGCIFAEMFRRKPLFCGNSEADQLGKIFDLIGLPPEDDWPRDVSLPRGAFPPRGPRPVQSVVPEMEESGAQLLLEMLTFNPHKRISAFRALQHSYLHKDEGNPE
T1 sequence (P30281 whole entry partner): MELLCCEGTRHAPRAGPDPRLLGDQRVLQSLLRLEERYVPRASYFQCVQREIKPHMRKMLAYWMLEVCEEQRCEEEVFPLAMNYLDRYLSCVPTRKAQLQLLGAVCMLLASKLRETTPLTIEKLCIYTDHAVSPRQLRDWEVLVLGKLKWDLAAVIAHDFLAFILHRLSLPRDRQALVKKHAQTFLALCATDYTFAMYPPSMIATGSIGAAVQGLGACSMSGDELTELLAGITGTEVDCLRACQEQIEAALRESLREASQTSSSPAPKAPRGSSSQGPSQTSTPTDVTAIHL

As for `O=C1N=c2ccccc2=C1c1s/c(=N\N=C2\C(=O)Nc3ccccc32)n(-c2ccc(O)cc2)c1O` [AF-399/37285031], the “% inhibition at 10 μM” value at CDK4 [1] was 57.8 ± 5.0.

For the molecule `CC(C)n1cc(C(N)=O)c2cnc(Nc3ccc(N4CCNCC4)cc3)nc21` [MJ-115], the “Inhibition for CDK4 at 100 μM (%)” value at CDK4 [2] came to 90.74 ± 1.28.

Consider `Oc1ccc(-c2ccc3nnc(-c4ccc5cccc(OC6CCNCC6)c5n4)n3c2)cc1` [MJ-1055], for which the negative logarithm of the IC50 (pIC50) (as a rule, −log10 of the IC50, conventionally taken in molar units) at CDK4 [3] was 4.60; on Pim1, 8.02.
